Reference: patent US20260070945A1, “MACROCYCLIC IMMUNOMODULATORS” (Bristol-Myers Squibb Company, priority 2022, published 2026)
Where a SMILES comes first, the peptide text is derived from it. Bridges are numbered along the chain shown (N, C = ends). [ ]: non-standard residue; d: D form. The star is where a group is joined. Phe(4-COOH) = N[C@@H](Cc1ccc(C(=O)O)cc1)C(=O)O; Bip = N[C@@H](Cc1ccc(-c2ccccc2)cc1)C(=O)O; Val(3-OH) = CC(C)(O)[C@H](N)C(=O)O; Cha = N[C@@H](CC1CCCCC1)C(=O)O; Cit = NC(=O)NCCC[C@H](N)C(=O)O; Carboxymethyl = O=C(O)C*; NMeA = CN[C@@H](C)C(=O)O; Aun = NCCCCCCCCCCC(=O)O; Dab = NCC[C@H](N)C(=O)O; AEEA = NCCOCCOCC(=O)O

Target: T1, PD-1/PD-L1 interaction (PE-labeled human PD-L1-Ig binding to Jurkat cell line over-expressing human PD-1) (Homo sapiens, UniProt Q15116)
T1 construct: expressed in transfected cells; host or cells: Jurkat
Test: Jurkat-PD-1 Cell Binding High-Content Screening Assay (CBA)
Settings: Jurkat-hPD-1 cells, PE-labeled PD-L1-Ig 20 nM final; read-out: Jurkat HPD1 PDL1 IC50
Summary of the method: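 Read-out: high-content imaging of cell-bound PE fluorescence, with Hoechst 33342 nuclear counterstain after paraformaldehyde fixation. Before labeled ligand (20 nM final, 1 h) was added, compound sat on the cells for 2 h at 37 °C in DMEM/10% FCS.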

T1 sequence (Q15116 25-288): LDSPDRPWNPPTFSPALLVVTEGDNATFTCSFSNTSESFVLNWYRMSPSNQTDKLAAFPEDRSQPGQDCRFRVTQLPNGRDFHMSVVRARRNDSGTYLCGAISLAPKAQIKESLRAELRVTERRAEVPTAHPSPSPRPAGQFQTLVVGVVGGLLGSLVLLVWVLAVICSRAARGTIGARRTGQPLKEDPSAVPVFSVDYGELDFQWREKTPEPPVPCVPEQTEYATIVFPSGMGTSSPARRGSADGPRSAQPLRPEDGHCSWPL

CC(C)C[C@@H]1NC(=O)[C@H](Cc2c[nH]c3ccccc23)NC(=O)[C@H](CC(=O)O)NC(=O)[C@H](Cc2ccc(C(=O)O)cc2)NC(=O)[C@H](Cc2ccc(OCC(=O)O)cc2)NC(=O)CSC[C@@H](C(=O)NCCOCCOCC(=O)NCCCCCCCCCCC(=O)O)NC(=O)[C@H](Cc2cnc[nH]2)NC(=O)[C@H](C(C)(C)O)NC(=O)[C@H](CC2CCCCC2)NC(=O)[C@H](CCN)NC(=O)[C@@H](CC(C)C)NC(=O)[C@H](C)N(C)C(=O)[C@H](C(C)C)NC(=O)[C@H](Cc2ccc(-c3ccccc3)cc2)NC1=O [Example 1121] ({CH2CO}-Y(Carboxymethyl)[Phe(4-COOH)]DWL[Bip]V[NMeA][dL][Dab][Cha][Val(3-OH)]HC[AEEA][Aun]-OH; thioether N-14) and CC(C)C[C@@H]1NC(=O)[C@H](Cc2c[nH]c3ccccc23)NC(=O)[C@H](CC(=O)O)NC(=O)[C@H](Cc2ccc(C(=O)O)cc2)NC(=O)[C@H](Cc2ccc(OCC(=O)O)cc2)NC(=O)CSC[C@@H](C(=O)N[C@@H](CCN)C(=O)NCCOCCOCC(=O)NCCCCCCCCCCC(=O)O)NC(=O)[C@H](CCC(=O)O)NC(=O)[C@H](C(C)(C)O)NC(=O)[C@H](CC2CCCCC2)NC(=O)[C@H](CCN)NC(=O)[C@@H](CC(C)C)NC(=O)[C@H](C)N(C)C(=O)[C@H](C(C)C)NC(=O)[C@H](Cc2ccc(-c3ccccc3)cc2)NC1=O [Example 1123] ({CH2CO}-Y(Carboxymethyl)[Phe(4-COOH)]DWL[Bip]V[NMeA][dL][Dab][Cha][Val(3-OH)]EC[Dab][AEEA][Aun]-OH; thioether N-14) are within 1.5-fold of each other in IC50: 8.1 nM for the first, 9.3 nM for the second.

First: CC(C)C[C@@H]1NC(=O)[C@H](Cc2c[nH]c3ccccc23)NC(=O)[C@H](CC(=O)O)NC(=O)[C@H](Cc2ccc(C(=O)O)cc2)NC(=O)[C@H](Cc2ccc(OCC(=O)O)cc2)NC(=O)CSC[C@@H](C(=O)N[C@@H](CCN)C(=O)NCCOCCOCC(=O)NCCCCCCCCCCC(=O)O)NC(=O)[C@H](CCCNC(N)=O)NC(=O)[C@H](C(C)(C)O)NC(=O)[C@H](CC2CCCCC2)NC(=O)[C@H](CCN)NC(=O)[C@@H](CC(C)C)NC(=O)[C@H](C)N(C)C(=O)[C@H](C(C)C)NC(=O)[C@H](Cc2ccc(-c3ccccc3)cc2)NC1=O [Example 1122] ({CH2CO}-Y(Carboxymethyl)[Phe(4-COOH)]DWL[Bip]V[NMeA][dL][Dab][Cha][Val(3-OH)][Cit]C[Dab][AEEA][Aun]-OH; thioether N-14)
Second: CC(C)C[C@@H]1NC(=O)[C@H](Cc2c[nH]c3ccccc23)NC(=O)[C@H](CC(=O)O)NC(=O)[C@H](Cc2ccc(C(=O)O)cc2)NC(=O)[C@H](Cc2ccc(OCC(=O)O)cc2)NC(=O)CSC[C@@H](C(=O)N[C@@H](CCN)C(=O)NCCOCCOCC(=O)NCCCCCCCCCCC(=O)O)NC(=O)[C@H](CCC(N)=O)NC(=O)[C@H](C(C)(C)O)NC(=O)[C@H](CC2CCCCC2)NC(=O)[C@H](CCN)NC(=O)[C@@H](CC(C)C)NC(=O)[C@H](C)N(C)C(=O)[C@H](C(C)C)NC(=O)[C@H](Cc2ccc(-c3ccccc3)cc2)NC1=O [Example 1125] ({CH2CO}-Y(Carboxymethyl)[Phe(4-COOH)]DWL[Bip]V[NMeA][dL][Dab][Cha][Val(3-OH)]QC[Dab][AEEA][Aun]-OH; thioether N-14)
The IC50 of the first is 2.6-fold lower: 3.8 nM for the first, 9.9 nM for the second.

Molecule CC(C)C[C@@H]1NC(=O)[C@H](Cc2c[nH]c3ccccc23)NC(=O)[C@H](CC(=O)O)NC(=O)[C@H](Cc2ccc(C(=O)O)cc2)NC(=O)[C@H](Cc2ccc(OCC(=O)O)cc2)NC(=O)CSC[C@@H](C(=O)N[C@@H](CCN)C(=O)NCCOCCOCC(=O)NCCCCCCCCCCC(=O)O)NC(=O)[C@H](CCC(N)=O)NC(=O)[C@H](C(C)C)NC(=O)[C@H](CC2CCCCC2)NC(=O)[C@H](CCN)NC(=O)[C@@H](CC(C)C)NC(=O)[C@H](C)N(C)C(=O)[C@H](C(C)C)NC(=O)[C@H](Cc2ccc(-c3ccccc3)cc2)NC1=O [Example 1126] ({CH2CO}-Y(Carboxymethyl)[Phe(4-COOH)]DWL[Bip]V[NMeA][dL][Dab][Cha]VQC[Dab][AEEA][Aun]-OH; thioether N-14) has an IC50 of 3.4 nM.
